This passage reports pest or weed control results from patent US20220132847A1, “CINNOLINIUM COMPOUNDS FOR USE IN A METHOD OF CONTROLLING UNWANTED PLANT GROWTH” (SYNGENTA CROP PROTECTION AG, priority 2019, published 2022).

Molecules are shown by their SMILES.

Common to all, as to test: Post-emergence efficacy, glasshouse
Common to all, as to format: in vivo

Test [1] deals with Ipomoea hederacea (IPOHE). The conditions noted are these: Ipomoea hederacea, post-emergence, 312 h, evaluated after 13 days, 100=total damage to plant, 0=no damage to plant, read-out: Control of weed species after post-emergence application, IPOHE; for pest or weed control at 1000 g/ha: Application Rate 1000 g/Ha; for pest or weed control at 500 g/ha: Application Rate 500 g/Ha. The protocol:
(§1) Seeds of a variety of test species were sown in standard soil in pots. After cultivation for 14 days (post-emergence) under controlled conditions in a glasshouse (at 24/16° C., day/night; 14 hours light; 65% humidity), the plants were sprayed with an aqueous spray solution derived from the dissolution of the technical active ingredient formula (I) in a small amount of acetone and a special solvent and emulsifier mixture referred to as IF50 (11.12% Emulsogen EL360™+44.44% N-methylpyrrolidone+44.44% Dowanol DPM glycol ether), to create a 50 g/l solution which was then diluted to required concentration using 0.25% or 1% Empicol ESC70 (Sodium lauryl ether sulphate)+1% ammonium sulphate in water as diluent.
(§2) The test plants were then grown in a glasshouse under controlled conditions (at 24/16° C., day/night; 14 hours light; 65% humidity) and watered twice daily. After 13 days the test was evaluated (100=total damage to plant; 0=no damage to plant).
(§3) Ipomoea hederacea (IPOHE), Euphorbia heterophylla (EPHHL), Chenopodium album (CHEAL), Amaranthus palmeri (AMAPA), Lolium perenne (LOLPE), Digitaria sanguinalis (DIGSA), Eleusine indica (ELEIN), Echinochloa crus-galli (ECHCG), Setaria faberi (SETFA)

Test [2] deals with Setaria faberi (SETFA). To be noted: Setaria faberi, post-emergence, 312 h, evaluated after 13 days, 100=total damage to plant, 0=no damage to plant, read-out: Control of weed species after post-emergence application, SETFA; for pest or weed control at 1000 g/ha: Application Rate 1000 g/Ha; for pest or weed control at 500 g/ha: Application Rate 500 g/Ha. The procedure:
as §1, §2, §3

Test [3] relates to Eleusine indica (ELEIN). The conditions noted are these: Eleusine indica, post-emergence, 312 h, evaluated after 13 days, 100=total damage to plant, 0=no damage to plant, read-out: Control of weed species after post-emergence application, ELEIN; for pest or weed control at 1000 g/ha: Application Rate 1000 g/Ha; for pest or weed control at 500 g/ha: Application Rate 500 g/Ha. The procedure: as §1, §2, §3

The test system of test [4] is Chenopodium album (CHEAL). The conditions noted are these: Chenopodium album, post-emergence, 312 h, evaluated after 13 days, 100=total damage to plant, 0=no damage to plant, read-out: Control of weed species after post-emergence application, CHEAL; for pest or weed control at 1000 g/ha: Application Rate 1000 g/Ha; for pest or weed control at 500 g/ha: Application Rate 500 g/Ha. The procedure: as §1, §2, §3

Test [5] has as its system Lolium perenne (LOLPE). To be noted: Lolium perenne, post-emergence, 312 h, evaluated after 13 days, 100=total damage to plant, 0=no damage to plant, read-out: Control of weed species after post-emergence application, LOLPE; for pest or weed control at 1000 g/ha: Application Rate 1000 g/Ha; for pest or weed control at 500 g/ha: Application Rate 500 g/Ha. The protocol: as §1, §2, §3

The subject of test [6] is Amaranthus palmeri (AMAPA). To be noted: Amaranthus palmeri, post-emergence, 312 h, evaluated after 13 days, 100=total damage to plant, 0=no damage to plant, read-out: Control of weed species after post-emergence application, AMAPA; for pest or weed control at 1000 g/ha: Application Rate 1000 g/Ha; for pest or weed control at 500 g/ha: Application Rate 500 g/Ha. The protocol:
as §1, §2, §3

The subject of test [7] is Euphorbia heterophylla (EPHHL). To be noted: Euphorbia heterophylla, post-emergence, 312 h, evaluated after 13 days, 100=total damage to plant, 0=no damage to plant, read-out: Control of weed species after post-emergence application, EPHHL; for pest or weed control at 1000 g/ha: Application Rate 1000 g/Ha; for pest or weed control at 500 g/ha: Application Rate 500 g/Ha. The procedure: as §1, §2, §3

The test system of test [8] is Echinochloa crus-galli (ECHCG). To be noted: Echinochloa crus-galli, post-emergence, 312 h, evaluated after 13 days, 100=total damage to plant, 0=no damage to plant, read-out: Control of weed species after post-emergence application, ECHCG; for pest or weed control at 1000 g/ha: Application Rate 1000 g/Ha; for pest or weed control at 500 g/ha: Application Rate 500 g/Ha. The protocol: as §1, §2, §3

The test system of test [9] is Digitaria sanguinalis (DIGSA). To be noted: Digitaria sanguinalis, post-emergence, 312 h, evaluated after 13 days, 100=total damage to plant, 0=no damage to plant, read-out: Control of weed species after post-emergence application, DIGSA; for pest or weed control at 1000 g/ha: Application Rate 1000 g/Ha; for pest or weed control at 500 g/ha: Application Rate 500 g/Ha. The procedure:
as §1, §2, §3

For `C[n+]1cc(C(=O)[N-]S(=O)(=O)c2ccc(F)cc2)c2ccccc2n1` [Compound A38], the pest or weed control at 1000 g/ha in [1] turned out to be 20%; in [2] it was 40%; in [3], 90%; in test [4], 50%; in [5] it was 0%; in test [6], 60%. Besides, the values for the pest or weed control at 1000 g/ha in test [7], in test [8] and in [9] were 60%, 20% and 30%, respectively.

For `C[C@@H](NC(=O)c1c[n+](C)nc2ccccc12)C(=O)OC(C)(C)C` [Compound A8, tert-butyl (2R)-2-[(2-methylcinnolin-2-ium-4-carbonyl)amino]propanoate iodide], the pest or weed control at 1000 g/ha was 10% in test [1]; 10% in test [2]; 10% in test [3]; 30% in [4]; 20% in test [5]; 20% in test [6]. Also, the pest or weed control at 1000 g/ha in [7] turned out to be 30%; in test [8], 20%; in test [9] it was 20%.

Consider `O=P([O-])(O)c1c[n+](CCO)nc2ccccc12` [Compound A67, hydroxy-[2-(2-hydroxyethyl)cinnolin-2-ium-4-yl]phosphinate], for which the pest or weed control at 1000 g/ha in test [1] stood at 30%; in test [2], 50%; in test [3] it was 10%; in [4], 60%; in test [5], 0%; in test [6], 30%. Also, the pest or weed control at 1000 g/ha in test [7] amounted to 30%; in test [8] it was 20%; in [9], 90%.

In the case of `CCOC(=O)Cc1c[n+](C)nc2ccccc12` [Compound A52, ethyl 2-(2-methylcinnolin-2-ium-4-yl)acetate 2,2,2-trifluoroacetate], the pest or weed control at 500 g/ha was found to be 20% in test [1]; 10% in test [2]; 70% in test [3]; 60% in test [4]; 10% in test [5]; 50% in test [6]. The pest or weed control at 500 g/ha in [7] turned out to be 40%; in test [8], 10%; in [9], 30%.

With `C[n+]1cc(CCC(=O)O)c2ccccc2n1` [Compound A56, 3-(2-methylcinnolin-2-ium-4-yl)propanoic acid 2,2,2-trifluoroacetate], the pest or weed control at 500 g/ha in test [1] was determined as 30%; in test [2] it was 60%; in test [3] it was 70%; in test [4], 90%; in test [5], 10%; in test [6], 100%. The pest or weed control at 500 g/ha amounted to 40% in test [7], 70% in [8] and 100% in [9].

As to `COC(=O)CC[n+]1cc(C(=O)[N-]S(C)(=O)=O)c2ccccc2n1` [Compound A18], the pest or weed control at 1000 g/ha in test [1] worked out at 20%; in test [2], 10%; in test [3] it was 20%; in test [4], 10%; in test [5], 0%; in test [6], 10%. For the same molecule, the pest or weed control at 1000 g/ha in [7] worked out at 10%; in test [8], 20%; in [9], 30%.

For `CCOP(=O)(O)c1c[n+](CCO)nc2ccccc12` [Compound A69], the pest or weed control at 500 g/ha is 90% in test [1]; 90% in [2]; 90% in [3]; 90% in test [4]; 40% in test [5]; 100% in test [6]. The pest or weed control at 500 g/ha was determined as 100% in test [7], 70% in test [8] and 100% in [9].

Regarding `C[n+]1cc(CP(=O)([O-])O)c2ccccc2n1` [Compound A50, (2-methylcinnolin-2-ium-4-yl)methylphosphonic acid], the pest or weed control at 1000 g/ha came out at 20% in test [1]; 10% in test [2]; 30% in test [3]; 30% in test [4]; 0% in [5]; 60% in test [6]. Besides, the pest or weed control at 1000 g/ha in test [7], in test [8] and in test [9] was 20% each time.

For `CNS(=O)(=O)[N-]C(=O)c1c[n+](C)nc2ccccc12` [Compound A10, 2-methyl-N-(methylsulfamoyl)cinnolin-2-ium-4-carboxamide], the pest or weed control at 1000 g/ha turned out to be 30% in [1]; 50% in test [2]; 60% in test [3]; 70% in test [4]; 30% in test [5]; 80% in test [6]. Besides, the pest or weed control at 1000 g/ha in test [7] is 70%; in test [8] it was 50%; in test [9], 70%.

As for `C[n+]1cc(P(C)(=O)O)c2ccccc2n1` [Compound A7], the pest or weed control at 1000 g/ha in [1] is 70%; in test [2], 70%; in test [3], 80%; in [4] it was 100%; in test [5] it was 40%; in test [7] it was 90%. The pest or weed control at 1000 g/ha in test [8] worked out at 70%.
